Calls of active or inactive are those of the source. No cut-off for these calls is given here.

We go through 21 molecules from ChEMBL document CHEMBL4421721, “Use of dynamin ring stabilizers” (2012).

In test [1] the target is Dynamin-2 (Homo sapiens) (UniProt P50570). In words: Inhibition of Dynamin-2 in human lymphoblasts incubated for 30 mins by electron microscopic analysis.
Test [2] is described as follows: Inhibition of full-length native sheep brain dynamin 1 assessed as reduction in PS liposomes-induced GTPase activity in absence of tween-80 using 7 nM full-length dynamin 1. Set-up: species or system Ovis aries.
Test [3] can be described thus: Inhibition of full-length native sheep brain dynamin 1 assessed as reduction in PS liposomes-induced GTPase activity in presence of tween-80 using 7 nM full-length dynamin 1. On the set-up: species or system Ovis aries.
For test [4], the species on record is Ovis aries. In words: Ring stabilizer activity at full-length native sheep brain dynamin 1 assessed as stimulation of GTPase activity in absence of PS liposomes and in presence of tween-80.
A further test concerns the target T1, Dynamin-1 (Homo sapiens) (UniProt Q05193).
T1 sequence (whole entry): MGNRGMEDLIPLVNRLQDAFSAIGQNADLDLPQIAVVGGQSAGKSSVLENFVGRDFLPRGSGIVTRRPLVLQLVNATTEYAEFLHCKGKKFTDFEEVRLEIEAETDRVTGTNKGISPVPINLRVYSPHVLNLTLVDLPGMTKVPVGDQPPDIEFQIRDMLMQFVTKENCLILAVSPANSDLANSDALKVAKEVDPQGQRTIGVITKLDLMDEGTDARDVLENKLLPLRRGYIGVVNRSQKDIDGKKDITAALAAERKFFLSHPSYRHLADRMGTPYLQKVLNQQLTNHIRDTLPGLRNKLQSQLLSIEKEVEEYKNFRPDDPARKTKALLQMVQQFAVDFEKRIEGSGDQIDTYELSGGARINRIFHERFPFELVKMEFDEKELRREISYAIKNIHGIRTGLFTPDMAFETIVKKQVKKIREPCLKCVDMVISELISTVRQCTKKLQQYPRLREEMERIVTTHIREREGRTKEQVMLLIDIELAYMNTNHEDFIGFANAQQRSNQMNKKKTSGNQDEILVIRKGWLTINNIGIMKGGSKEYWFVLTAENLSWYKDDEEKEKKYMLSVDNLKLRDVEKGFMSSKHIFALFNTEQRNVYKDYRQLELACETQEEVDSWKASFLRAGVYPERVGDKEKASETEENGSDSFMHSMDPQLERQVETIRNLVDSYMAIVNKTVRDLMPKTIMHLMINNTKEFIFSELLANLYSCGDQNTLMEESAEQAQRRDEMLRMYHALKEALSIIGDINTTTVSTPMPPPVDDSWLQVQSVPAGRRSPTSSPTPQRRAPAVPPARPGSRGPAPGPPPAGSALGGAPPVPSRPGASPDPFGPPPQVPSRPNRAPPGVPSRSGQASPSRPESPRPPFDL
In words: Ring stabilizer activity at recombinant dynamin 1 dimeric GG2 form (unknown origin) assessed as stimulation of GTPase activity using 200 to 1000 nM full-length dynamin.

A short description of test [5]: (§1) Ring stabilizer activity at full-length native sheep brain dynamin 1 assessed as stimulation of GTPase activity in absence of PS liposomes. Set-up: species or system Ovis aries.
Test [6] is described as follows: Inhibition of full-length native sheep brain dynamin 1 assessed as reduction in PS liposomes-induced GTPase activity using 20 nM full-length dynamin 1. On the set-up: species or system Ovis aries.
Test [7] can be described thus: Ring stabilizer activity at full-length native sheep brain dynamin 1 assessed as stimulation of GTPase activity in absence of PS liposomes using 200 nM full-length dynamin 1. On the set-up: species or system Ovis aries.
For test [8], the species on record is Ovis aries. The description is as §1.
For test [9], the species on record is Ovis aries. The experiment in a line: Inhibition of dis-assembly of pre-assembled full-length native sheep brain dynamin 1 pre-incubated in presence of PS liposomes followed compound addition at 5 uM and measured after 10 mins.
A short description of test [10]: Inhibition of full-length native sheep brain dynamin 1 assessed as reduction in PS liposomes-induced GTPase activity. Set-up: species or system Ovis aries.
Test [11] deals with T2, Dynamin-2 (Homo sapiens) (UniProt P50570).
T2 sequence (whole entry): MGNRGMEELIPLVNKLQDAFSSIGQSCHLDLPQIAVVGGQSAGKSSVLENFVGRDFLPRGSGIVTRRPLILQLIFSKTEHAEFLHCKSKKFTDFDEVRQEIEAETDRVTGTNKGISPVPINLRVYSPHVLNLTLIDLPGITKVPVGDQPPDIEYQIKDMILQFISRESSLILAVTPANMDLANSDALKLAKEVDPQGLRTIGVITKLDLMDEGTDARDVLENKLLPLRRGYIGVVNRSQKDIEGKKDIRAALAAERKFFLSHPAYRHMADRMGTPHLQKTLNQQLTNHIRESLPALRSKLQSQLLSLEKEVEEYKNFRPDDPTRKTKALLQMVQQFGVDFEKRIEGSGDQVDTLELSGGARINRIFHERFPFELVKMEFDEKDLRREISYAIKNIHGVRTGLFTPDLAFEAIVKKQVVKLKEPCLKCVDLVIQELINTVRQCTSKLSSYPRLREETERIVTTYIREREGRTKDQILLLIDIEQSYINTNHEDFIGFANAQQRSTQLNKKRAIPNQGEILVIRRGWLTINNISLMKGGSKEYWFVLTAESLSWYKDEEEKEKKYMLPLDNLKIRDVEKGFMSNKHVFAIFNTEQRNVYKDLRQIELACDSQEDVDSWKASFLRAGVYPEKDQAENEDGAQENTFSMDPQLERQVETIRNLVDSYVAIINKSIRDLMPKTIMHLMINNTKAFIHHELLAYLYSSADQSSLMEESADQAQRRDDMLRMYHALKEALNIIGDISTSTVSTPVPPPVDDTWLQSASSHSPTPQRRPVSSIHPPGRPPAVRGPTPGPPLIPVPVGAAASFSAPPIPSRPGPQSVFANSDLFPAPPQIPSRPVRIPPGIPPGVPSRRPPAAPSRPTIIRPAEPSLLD
In words: Ring stabilizer activity at Dynamin-2 in human lymphoblasts assessed as accumulation in all cells of clathrin coated pits with highly elongated necks encircled by electron dense rings incubated for 30 mins by electron microscopic analysis. The test is classed as cell-based.

The target of test [12] is T2, Dynamin-2 (Homo sapiens). The experiment in a line: Ring stabilizer activity at Dynamin-2 in human lymphoblasts assessed as accumulation in all cells of clathrin coated pits with highly elongated necks incubated for 30 mins by electron microscopic analysis. It is filed as cell-based.
The species named for test [13] is Ovis aries. The experiment in a line: Induction of ring assembly of full-length native sheep brain dynamin 1 at 300 uM using 520 nM full-length dynamin in presence of 40 mM NaCl by Coomassie staining based SDS gel electrophoresis method.
The species named for test [14] is Ovis aries. The experiment in a line: Induction of ring assembly of full-length native sheep brain dynamin 1 at 100 uM using 520 nM full-length dynamin in presence of 40 to 60 […] by Coomassie staining based SDS gel electrophoresis method.
Test [15] concerns the target T3, Dynamin-1 (Rattus norvegicus) (UniProt P21575).
T3 sequence (whole entry): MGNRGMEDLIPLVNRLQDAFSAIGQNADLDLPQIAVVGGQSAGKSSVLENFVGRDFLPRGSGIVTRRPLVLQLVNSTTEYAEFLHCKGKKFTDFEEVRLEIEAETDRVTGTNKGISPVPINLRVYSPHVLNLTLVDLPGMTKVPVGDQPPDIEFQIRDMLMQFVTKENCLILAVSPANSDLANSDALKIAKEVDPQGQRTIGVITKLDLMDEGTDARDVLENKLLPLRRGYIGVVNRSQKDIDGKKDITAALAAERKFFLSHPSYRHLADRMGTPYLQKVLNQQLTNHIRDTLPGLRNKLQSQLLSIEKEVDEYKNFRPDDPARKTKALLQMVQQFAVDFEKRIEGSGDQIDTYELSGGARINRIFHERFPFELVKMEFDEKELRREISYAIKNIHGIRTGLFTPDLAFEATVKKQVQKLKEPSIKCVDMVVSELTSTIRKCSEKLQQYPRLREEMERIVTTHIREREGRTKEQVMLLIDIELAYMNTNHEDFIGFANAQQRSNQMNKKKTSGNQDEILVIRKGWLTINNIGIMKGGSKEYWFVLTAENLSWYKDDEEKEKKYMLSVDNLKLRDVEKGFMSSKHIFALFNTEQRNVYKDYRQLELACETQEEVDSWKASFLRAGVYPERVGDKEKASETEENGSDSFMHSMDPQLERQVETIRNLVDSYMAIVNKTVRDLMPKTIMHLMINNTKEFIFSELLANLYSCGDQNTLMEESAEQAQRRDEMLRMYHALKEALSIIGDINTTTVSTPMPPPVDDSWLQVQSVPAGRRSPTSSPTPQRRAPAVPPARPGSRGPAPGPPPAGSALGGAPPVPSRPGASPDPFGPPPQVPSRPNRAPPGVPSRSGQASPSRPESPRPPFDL
In words: Ring stabilizer activity at Dynamin-1 rat brain synaptosomes depolarised with KCl assessed as formation of trapped endocytic pits encircled by a single electron dense ring incubated for 30 mins by electron microscopic analysis. The test is classed as subcellular.

For test [16], the target named is T2, Dynamin-2 (Homo sapiens). The experiment in a line: Inhibition of Dynamin-2 in human lymphoblasts assessed as accumulation of clathrin coated pits at the plasma membrane incubated for 30 mins by electron microscopic analysis.

With CETRIMIDE, the inhibition entry at Dynamin-2 (Homo sapiens) [1] was “Active”.
As usually defined, the IC50 is the concentration needed to halve the response being measured. For `O=C(N/N=C/c1ccc(O)c(O)c1O)c1cc2ccccc2cc1O`, the IC50 is 3.1 µM in test [2] and “Not Active” in test [3].
Consider `CCCCCCCCCCCCCCCCCC[N+](C)(C)C`, for which the outcome in the test filed under Ovis aries [4] was Active.
One may read the EC50 as the concentration needed to bring the measured effect to its halfway point. For `N=c1oc2c(O)c(O)ccc2cc1C(=O)NCCCNC(=O)c1cc2ccc(O)c(O)c2oc1=N`, the outcome at Dynamin-1 (Homo sapiens) was inactive. In addition, in [5], the EC50 amounted to 1 µM. The IC50 in [6] stood at 0.45 µM.
For `O=C(N/N=C/c1ccc(O)cc1O)c1cc2ccccc2cc1O`, the IC50 was determined as 7.3 µM in test [2] and 200 µM in [3] (read-out: IC50).
Consider `N=c1oc2cc(O)ccc2cc1C(=O)NCCCNC(=O)c1cc2ccc(O)cc2oc1=N`, for which the EC50 in [7] (read-out: EC50) is 40 µM. Besides, the IC50 in test [6] worked out at 17.3 µM.
In the case of `COc1cc(/C=N/NC(=O)c2cc3ccccc3cc2O)c(O)cc1O`, the results for the IC50 in test [2] and in test [3] (read-out: IC50) were 3.6 µM and 1170 µM, respectively.
For the molecule `N=c1oc2c(O)cccc2cc1C(=O)NCCCNC(=O)c1cc2cccc(O)c2oc1=N`, in [7], the EC50 entry was “Not Active”. Also, in test [6], the IC50 stood at 36.6 µM.
With `CCCCCCCCNC(=O)/C(C#N)=C/c1cn(CCCN(C)C)c2ccccc12`, the result in the test listed under Ovis aries [4] was Active. Also, the outcome in the test listed under Ovis aries [8] was inactive. In addition, the inhibition entry in the test listed under Ovis aries [9] is “Active”.
Regarding `N=c1oc2cc(O)c(O)cc2cc1C(=O)NCCNC(=O)c1cc2cc(O)c(O)cc2oc1=N`, the EC50 in [7] (read-out: EC50) worked out at 31 µM. Also, the IC50 in test [6] came to 0.33 µM.
For `O=C(N/N=C/c1cccc(O)c1O)c1cc2ccccc2cc1O`, the figures for the IC50 in [2] and in test [3] (read-out: IC50) were 22.1 µM and 19.8 µM, respectively.
Turning to `O=C(N/N=C/c1cc(O)c(O)cc1O)c1cc2ccccc2cc1O`, the result in the test filed under Ovis aries [4] was inactive. In addition, the IC50 worked out at 0.3 µM in test [10] and 2.7 µM in [3] (read-out: IC50). Besides, the outcome in the test listed under Ovis aries [8] was Active.
In the case of `N#C/C(=C\c1ccc(O)c(O)c1)C(=O)NCCCNC(=O)/C(C#N)=C/c1ccc(O)c(O)c1`, the outcome at Dynamin-1 (Homo sapiens) was inactive. The outcome (at Dynamin-2 (Homo sapiens) [11]; on Dynamin-2 (Homo sapiens) [12]; in the test listed under Ovis aries [4]; in the test listed under Ovis aries [13]; in the test listed under Ovis aries [14]; in [15]) was Active.
On to `CCCCCCNC(=O)/C(C#N)=C/c1c(C)n(CCCN(C)C)c2ccccc12`, for which the outcome in the test filed under Ovis aries [4] was Active.
In the case of `O=C(N/N=C/c1ccc(O)c(O)c1)c1cc2ccccc2cc1O`, the result in the test listed under Ovis aries [8] was Active. For the same molecule, the inhibition entry at Dynamin-2 (Homo sapiens) [16] is “Active”.
As to `CCCCCCCCCCNC(=O)/C(C#N)=C/c1cn(CCN(C)C)c2ccccc12`, the outcome in the test listed under Ovis aries [4] was Active.
Still for that read-out and setting: with `CCCCCCNC(=O)/C(C#N)=C/c1c(C)n(CCN(C)C)c2ccccc12` the entry was “Active”.
Take `O=C(N/N=C/c1cc(O)cc(O)c1)c1cc2ccccc2cc1O`: the IC50 in test [2] is 39.8 µM; in [3], “Not Active”.
Turning to `N=c1oc2cc(O)c(O)cc2cc1C(=O)NCCCNC(=O)c1cc2cc(O)c(O)cc2oc1=N`, the EC50 in test [5] worked out at 4 µM. For the same molecule, the IC50 in test [6] was 0.26 µM.
Consider `O=C(N/N=C/c1cc(O)c(O)c(O)c1)c1cc2ccccc2cc1O`, for which the results for the IC50 in [2] and in [3] (read-out: IC50) were 4.4 µM and 468 µM, respectively.
On to `CCCCCCCCNC(=O)/C(C#N)=C/c1c(C)n(CCN(C)C)c2ccccc12`, for which, in the test filed under Ovis aries [4], the result was Active.
